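Interpolation was linear, between the two tested concentrations surrounding the appropriate level; five concentrations were tested over 48 hours in 96-well plates. TGI is the concentration that stops growth completely.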 Where a SMILES comes first, the peptide text is derived from it. The star is where a group is joined. Boc = CC(C)(C)OC(=O)*
Key:
Assay in all cases: DTP human tumour cell line panel, 48 h
HCT-15 colon = test system: HCT-15 colon
NCI/ADR-RES ovarian = test system: NCI/ADR-RES ovarian
MDA-MB-231 breast = test system: MDA-MB-231 breast
HL-60(TB) leukemia = test system: HL-60(TB) leukemia
RPMI-8226 leukemia = test system: RPMI-8226 leukemia
LOX IMVI melanoma = test system: LOX IMVI melanoma
KM12 colon = test system: KM12 colon
NCI-H522 lung = test system: NCI-H522 lung
EKVX NSCLC = test system: EKVX NSCLC
NCI-H460 lung = test system: NCI-H460 lung
COLO 205 colon = test system: COLO 205 colon
MCF7 breast = test system: MCF7 breast
ACHN renal = test system: ACHN renal
786-0 renal = test system: 786-0 renal
MOLT-4 leukemia = test system: MOLT-4 leukemia
SF-268 CNS = test system: SF-268 CNS
HOP-62 NSCLC = test system: HOP-62 NSCLC
OVCAR-4 ovarian = test system: OVCAR-4 ovarian
SR leukemia = test system: SR leukemia

| Structure (SMILES) | TGI (HCT-15 colon) [µM] | TGI (NCI/ADR-RES ovarian) [µM] | TGI (MDA-MB-231 breast) [µM] | TGI (HL-60(TB) leukemia) [µM] | TGI (RPMI-8226 leukemia) [µM] | TGI (LOX IMVI melanoma) [µM] | TGI (KM12 colon) [µM] | TGI (NCI-H522 lung) [µM] | TGI (EKVX NSCLC) [µM] | TGI (NCI-H460 lung) [µM] | TGI (COLO 205 colon) [µM] | TGI (MCF7 breast) [µM] | TGI (ACHN renal) [µM] | TGI (786-0 renal) [µM] | TGI (MOLT-4 leukemia) [µM] | TGI (SF-268 CNS) [µM] | TGI (HOP-62 NSCLC) [µM] | TGI (OVCAR-4 ovarian) [µM] | TGI (SR leukemia) [µM] |
| --- | --- | --- | --- | --- | --- | --- | --- | --- | --- | --- | --- | --- | --- | --- | --- | --- | --- | --- | --- |
| CN(C)CCNC1=CC(=O)c2c(O)ccc(O)c2C1=O | > 40.8 | 7.78 | 25 | 6.53 | > 68.2 | 12.7 | 21.2 | 9.85 | 25.6 | 14.6 | 3.63 | 7.27 | 25.8 | 15.4 | > 100 | 28.1 | 30.3 | 15.7 | – |
| CCOCC(NC(=O)C(CC(C)C)NC(=O)OC(C)(C)C)C(N)=O (stereo not drawn) (Boc-Leu-Ser(Et)-NH2; configuration not given here) | > 100 | > 100 | > 100 | > 100 | – | > 100 | > 100 | > 100 | > 100 | – | > 100 | > 100 | > 100 | > 100 | > 100 | > 100 | > 100 | > 100 | – |
| CSc1nc(O)c(/C=C2\C=Nc3ccccc32)[nH]1 | > 100 | > 100 | > 100 | 94.1 | > 100 | > 100 | – | – | – | > 100 | > 100 | > 100 | > 100 | > 100 | > 100 | > 100 | > 100 | > 100 | > 100 |
| CC(=O)NNC(=S)/N=C/c1c(O)cc(C)oc1=O | > 100 | > 100 | > 100 | > 100 | – | > 100 | > 100 | – | > 100 | > 100 | > 100 | > 100 | > 100 | > 100 | > 100 | – | > 100 | > 100 | – |
| Cc1cc(O)c(/C=N/c2nc(-c3cccc([N+](=O)[O-])c3)cs2)c(=O)o1 | > 100 | > 100 | > 100 | 47.2 | – | > 100 | > 100 | – | > 100 | > 100 | > 100 | > 100 | > 100 | > 100 | – | – | > 100 | > 100 | – |
| COc1ccccc1N=N/C(=N/NC(=O)c1ccc(C)cc1)c1ccc(N(CCC#N)CCC#N)cc1OC | > 100 | > 100 | 79.4 | 26.5 | 33.5 | > 100 | 84.4 | 79 | 69.2 | > 100 | 31.1 | 63.1 | 55.9 | > 100 | 49.6 | 77.8 | > 100 | > 100 | – |
| CC(=O)c1c(-c2ccccc2)c(-c2ccc(OCCN(C)C)cc2)n2ccccc12 | 22.7 | 33.9 | 31 | 36.3 | 60.2 | 29.1 | 26.5 | 27.9 | 43.8 | 26 | 27 | 32.3 | 29.2 | 32.2 | 48 | 33.1 | – | > 100 | – |
| CCCC#CC(O)(C(=O)OC1CCN(C)CC1)C1CCCCC1 (stereo unspecified) | > 100 | > 100 | > 100 | – | > 100 | > 100 | > 100 | – | > 100 | > 100 | > 100 | > 100 | > 100 | > 100 | > 100 | > 100 | > 100 | > 100 | > 100 |
| c1ccc(/N=C2\c3ccccc3CN2c2ccccn2)nc1 | > 100 | – | > 100 | – | > 100 | > 100 | > 100 | > 100 | > 100 | > 100 | > 100 | > 100 | > 100 | > 100 | > 100 | > 100 | > 100 | > 100 | – |
| CSc1nncc2[nH]cnc12 | > 100 | > 100 | > 100 | > 100 | > 100 | – | > 100 | – | > 100 | > 100 | > 100 | > 100 | > 100 | > 100 | > 100 | > 100 | > 100 | – | > 100 |
| CN[C@@H](C)[C@H](OP(=O)(O)OC1[C@@H](O)[C@H](O)C(O)[C@H](O)[C@@H]1O)c1ccccc1 (stereo partly specified) | > 100 | > 100 | > 100 | > 100 | > 100 | – | > 100 | > 100 | > 100 | > 100 | > 100 | > 100 | > 100 | > 100 | > 100 | > 100 | > 100 | > 100 | – |
| NC12CC3CC4C1CC1CC2C(C3)C4(N)C1 | > 100 | > 100 | > 100 | > 100 | – | > 100 | > 100 | > 100 | > 100 | > 100 | > 100 | > 100 | > 100 | > 100 | > 100 | > 100 | > 100 | > 100 | – |
| O=C(OCC1CCCN2CCCCC12)c1ccncc1 (stereo unspecified) | > 100 | > 100 | > 100 | – | > 100 | > 100 | > 100 | – | > 100 | > 100 | > 100 | > 100 | > 100 | > 100 | > 100 | > 100 | > 100 | > 100 | > 100 |
| CCOC(=O)c1cc(=O)oc2c1N(C)c1ncccc1N2 | > 100 | > 100 | > 100 | – | > 100 | > 100 | > 100 | – | – | > 100 | > 100 | > 100 | > 100 | > 100 | > 100 | > 100 | > 100 | > 100 | > 100 |
| Fc1cc(-c2ncc(Cl)cc2Cl)c2cccccc1-2 | > 100 | > 100 | > 100 | – | – | > 100 | > 100 | > 100 | > 100 | > 100 | > 100 | > 100 | > 100 | > 100 | – | > 100 | > 100 | – | – |
| COc1cc(/C=C/C(=O)N[C@@H]2C(=O)N3[C@@H]2SC(C)(C)[C@@H]3C(=O)O)cc(OC)c1OC | > 100 | > 100 | > 100 | > 100 | > 100 | > 100 | > 100 | > 100 | > 100 | > 100 | > 100 | > 100 | > 100 | > 100 | > 100 | > 100 | – | > 100 | – |
| O=C(N/N=C\c1ccc([N+](=O)[O-])cc1)c1ccccc1Nc1ccccc1C(=O)N/N=C/c1ccc([N+](=O)[O-])cc1 | > 100 | > 100 | 95.1 | > 100 | > 100 | – | > 100 | – | > 100 | > 100 | > 100 | > 100 | > 100 | > 100 | > 100 | > 100 | > 100 | > 100 | > 100 |
| COc1cc(C(=O)Nc2c3ccccc3nc3ccccc23)cc(OC)c1OC | > 100 | > 100 | > 100 | 5.58 | > 100 | > 100 | > 100 | > 100 | > 100 | > 100 | > 100 | > 100 | > 100 | > 100 | > 100 | > 82 | > 80.1 | > 100 | – |
| CN(C)CCNC(=O)c1ccc(NCCCN(C)CCCNc2ccc(C(=O)NCCN(C)C)c3[nH]c4ccc([N+](=O)[O-])cc4c(=O)c23)c2c(=O)c3cc([N+](=O)[O-])ccc3[nH]c12 | 1.8 | 3.58 | 0.34 | 1.01 | 0.151 | 0.206 | – | – | – | 0.169 | 0.502 | 0.655 | 1.5 | 1.14 | 0.0623 | – | 1.92 | 1.55 | 1.91 |
| CCOC(=O)/C=C(\N=P(c1ccccc1)(c1ccccc1)c1ccccc1)C(F)(F)C(F)(F)C(F)(F)C(F)(F)C(F)(F)F | > 100 | > 100 | > 100 | > 100 | > 100 | > 100 | > 100 | – | – | > 100 | > 100 | > 100 | > 100 | > 100 | > 100 | > 100 | > 100 | > 100 | > 100 |
| CC(C)CC1[C@@H](OCc2ccccc2)COS(=O)(=O)N1Cc1ccccc1 (stereo partly specified) | > 100 | > 100 | > 100 | > 100 | > 100 | > 100 | > 100 | > 100 | > 100 | > 100 | > 100 | > 100 | > 100 | > 100 | > 100 | > 100 | > 100 | > 100 | – |
| S=C(c1c[nH]c2ccccc12)N1CCN(c2ccccc2)CC1 | > 100 | > 100 | > 100 | > 100 | > 100 | > 100 | > 100 | – | > 100 | > 100 | > 100 | > 100 | > 100 | > 100 | > 100 | > 100 | > 100 | – | > 100 |
| O=c1c(-c2ccccc2Cl)coc2cc(F)ccc12 | > 100 | 46.7 | 67.3 | 31.2 | – | 35.3 | 71.8 | 36.5 | > 100 | > 100 | > 100 | > 100 | > 100 | > 100 | > 100 | > 100 | 62.2 | > 100 | – |
| O=C(O)c1cc(O)c2c(c1)Cc1cccc(O)c1C2=O | 33 | 93.9 | 52.4 | 47.2 | 53.2 | – | – | – | 80 | 65.6 | 57.4 | > 100 | 34.8 | 92.2 | 56.5 | 56.6 | 43 | > 100 | 66.8 |
| O=C1/C(=C/c2cccs2)NC(=S)N1CN1CCOCC1 | > 100 | > 100 | > 100 | – | > 100 | > 100 | > 100 | – | > 100 | – | > 100 | > 100 | > 100 | > 100 | > 100 | > 100 | > 100 | – | > 100 |
| Cc1ccc(/C=N/NC2=NCCN2)s1 | > 100 | > 100 | > 100 | > 100 | > 100 | > 100 | > 100 | > 100 | > 100 | – | > 100 | > 100 | > 100 | > 100 | > 100 | > 100 | > 100 | > 100 | – |
| Cc1ccc2cccc3c2c1CC1(C3=O)S(=O)(=O)OCCOS1(=O)=O | > 100 | > 100 | > 100 | > 100 | > 100 | > 100 | > 100 | > 100 | > 100 | > 100 | > 100 | > 100 | > 100 | > 100 | > 100 | > 100 | > 100 | > 100 | – |
